Several values for one entry are separate records, joined by “and”; a condition that tells them apart may be missing. Equal values may be shown once. Entries after “also recorded” stand apart in the source; their conditions may differ.
How the values were obtained:
[1] = test system: ILA1 CTL; experiment: pMHCI tetramer staining of ILA1 CTL clone after PKI pre-treatment (flow cytometry); format: cell-based, human; conditions: for enhancement of tetramer staining after PKI pre-incubation: ILA1 CTL, data not shown
[2] = test system: T-cell clones; experiment: Recovery of responsiveness to antigen after drug removal; format: cell-based; conditions: T-cell clones incubated in 50 nM dasatinib for 24 hours; data not shown
[3] = test system: CTL lines (Melan-A/Mart-1 26-35 and influenza matrix M1 58-66); experiment: Cognate tetramer staining of HLA A2-restricted CTL lines expanded from PBMC; format: cell-based, human; conditions: 50 nM dasatinib
[4] = test system: tetramer-positive CD3+CD8+ T-cells; format: cell-based, human
Method: . It is known that pMHCI tetramer-induced signaling can trigger cell death (Purbhoo et al., 2001; Xu et al., 2001; Guillaume et al., 2003; Cebecauer et al., 2005). Cell death induced by tetramer staining was assessed using the amine-reactive viability dye GrViD at the end of the staining procedure, which is spectrally distinct from ViViD. PBMC were stained with ViViD to identify and allow exclusion of dead and dying cells prior to the addition of pMHCI tetramer; GrVID staining was performed after pMHCI tetramer and surface antibody staining. Data were acquired on a BD LSR II flow cytometer and analyzed using FlowJo software. ViViD^±, CD14^+ and CD19^+ cells were excluded from the analysis and the frequency of GrViD-positive cells was assessed in the tetramer-positive CD3+CD8^+ T-cell populations. Representative flow profiles are shown here for CD^+T-cells specific for the HLA A2-restricted epitopes CMV pp65495-503 ([…](SEQ ID NO:3)) and EBV BMLFI259-267 ([…] SEQ ID NO:4)). […]. […] Stained PBMC were acquired on a BD LSR II (Becton Dickinson Immunocytometry Systems, San Jose, Calif., USA) and analyzed using FlowJo software (Tree Star, Inc., Ashland, Oreg., USA).

[5] = test system: naïve murine F5 TCR CTL; experiment: H2-Db/[…] tetramer staining of F5 TCR transgenic splenocytes; format: cell-based, mouse; conditions: 50 nM dasatinib 30 minutes
Description: C. […] Samples were washed with PBS before flow cytometric analysis.

[6] = test system: ILA1 CTL; experiment: TCR and CD8 expression levels at the CTL cell surface; format: cell-based, human; conditions: 50 nM dasatinib 37° C.
[7] = Shelf-life of working solution; format: physicochemical; conditions: 100 nM in PBS
Method: Biological activity was tested in a cell death titration assay on BA/F3 bcr-abl cells as described previously (Magnusson et al., 2002). […] The 1 mM DMSO stock was diluted 1/10,000 in PBS on the day of experimentation to achieve a working solution of 100 nM; subsequent ½ dilution yielded a final concentration of 50 nM in cellular assays unless stated otherwise. The 100 nM working solution was always made up on the day of experimentation as the shelf-life of this solution is short (˜days). Staurosporine (Biomol), Lck inhibitor II (Calbiochem), genestein (calbiochem), herbimycin A (Calbiochem), PP2 (Calbiochem) and PP3 (Calbiochem) were dissolved and stored at −20° C. in DMSO. PKIs were dissolved in PBS prior to use and tested at concentrations of 1 nM, 3 nM, 5 nM, 10 nM, 20 nM, 50 nM, 100 nM, 250 nM, 500 nM and 1 μM.

[8] = test system: antigen-specific CD8+ T-cells in PBMC; experiment: pMHCI tetramer staining of PBMC directly ex vivo; format: cell-based, human
[9] = test system: HLA DR*0101-restricted CD4+ T-cell clone C6; conditions: 50 nM dasatinib 30 minutes
[10] = test system: T-cells; conditions: cited from earlier work
[11] = test system: ILA1 CTL; experiment: pMHCI tetramer on-rate experiment; conditions: dasatinib+tetramer; 50 nM 30 minutes 37° C.; HLA A2/hTERT540-548 tetramer
[12] = test system: Mel13 CTL; experiment: Antigen-induced TCR downregulation; conditions: 50 nM dasatinib; peptide-pulsed C1R-A2 B cells, 4 hours
[13] = biological target: IE6 TCR (on CTL clone IE6)
[14] = biological target: Short term line

CC(C)(C)n1nc(-c2ccc(Cl)cc2)c2c(N)ncnc21 [PP2]
enhancement of tetramer staining after PKI pre-incubation [1]: moderate increase

Nc1ncnc2c1cnn2-c1ccccc1 [PP3]
enhancement of tetramer staining after PKI pre-incubation [1]: no significant enhancement

Cc1nc(Nc2ncc(C(=O)Nc3c(C)cccc3Cl)s2)cc(N2CCN(CCO)CC2)n1 [dasatinib, N-(2-chloro-6-methyl-phenyl)-2-(6-(4-(2-hydroxyethyl)-piperazin-1-yl)-2-methylpyrimidin-4-ylamino)thiazole-5-carboxamide]
increase in pMHCI tetramer staining [1]: 60%
increase in pMHCI tetramer staining intensity [1]: 89%
time to regain responsiveness to antigen after drug removal [2]: ≤ 1 h
increase in fluorescence intensity of T-cells that bound tetramer weakly [3]: > 20 fold
increase in staining intensity of all cognate CD8+ T-cells [3]: at least 2 fold
frequency of GrViD-positive dead cells within the tetramer-positive population [4]: always lower; also recorded: reduced
pMHCI tetramer staining of naïve murine F5 TCR CTL directly ex vivo [5]: enhanced
time until significant increases in TCR and CD8 levels [6]: > 30 min
shelf-life of 100 nM working solution [7]: short
pMHCI staining intensity and percentage of antigen-specific CD8+ T-cells [8]: substantial increase
pMHCII tetramer staining of CD4+ T-cell clone [9]: enhanced
concentrations not toxic to T-cells in the short term [10]: < 100 nM
tetramer on-rate, fast rate [11]: 0.42 min⁻¹
tetramer on-rate, slow rate [11]: 0.06 min⁻¹
antigen-induced TCR downregulation from the CTL surface [12]: block antigen-induced TCR downregulation

O=c1c(-c2ccc(O)cc2)coc2cc(O)cc(O)c12 [genestein]
enhancement of tetramer staining after PKI pre-incubation [1]: no significant enhancement

CO[C@H]1[C@@H](OC)C[C@H](C)[C@@H](OC)C2=CC(=O)C=C(NC(=O)/C(C)=C/C=C\[C@H](OC)[C@@H](OC(N)=O)/C(C)=C/[C@@H]1C)C2=O [herbimycin, herbimycin A]
enhancement of tetramer staining after PKI pre-incubation [1]: no significant enhancement

CN[C@@H]1C[C@H]2O[C@@](C)([C@@H]1OC)n1c3ccccc3c3c4c(c5c6ccccc6n2c5c31)C(=O)NC4 [staurosporine]
enhancement of tetramer staining after PKI pre-incubation [1]: no significant enhancement

HLA A2 presenting PPI15-24 peptide on pulsed target cells (from UniProt P61769 21-119) (peptide-MHC)
% TNFα-positive cells (intracellular cytokine staining, TNF-APC against SSC-Height, 6 h with PPI peptide) [13]: 30.9%

HLA A2/PPI15-24 tetramer (from UniProt P61769 21-119) (peptide-MHC)
MFI [14]: 217 and 347
